Reference: US20060205749A1, “Remedy and/or preventive for lung diseases” (priority 2003, published 2006)

How the values were obtained:
[1] = test system: neutrophils in BALF, lipopolysaccharide (LPS)-induced pulmonary injury model; test: Inhibitory effect on increase of neutrophils in LPS-induced pulmonary injury model; type: in vivo; details: male BALB/c mice, 0.1 mg/body intratracheally together with LPS, BAL 6 hours after administration
Method: Physiological saline containing 25% Alevaire (registered trademark, Azwell Inc., Osaka) which is an inhalant for respiratory organs (administration solvent), or administration solvent dissolving 300 ng/mL of LPS (manufactured by Sigma-Aldrich, Mo., USA) were administered intratracheally to 9-week-old male BALB/c mice (Charles River Japan, Kanagawa) in an amount of 0.1 mL respectively. Then bronchoalveolar lavages (BALS) were performed 6 hours after the intratracheal administration (These administration groups were referred to as a “solvent administration group” and an “LPS administration group”, respectively). […]
The recovered bronchoalveolar lavage fluids (BALFS) were centrifuged at 570×g for 10 minutes at 4° C., followed by removal of supernatants to obtain pellets. […] The total numbers of leukocytes were counted with an automatic blood cell counter Celltac α (Nihon Kohden Corporation, Tokyo). […] Then, the numbers of cells were counted under a microscope (400×).
The number of cells was counted up to 300 in total while macrophages, neutrophils and lymphocytes were distinguished. Then, the ratio of each cell was calculated (equation 1). The number of neutrophils was calculated from the ratio of neutrophils and the total number of leukocytes (equation 2). The inhibition ratio of the increase in number of neutrophils by the administration of Compound (I) was calculated by equation 3. […]

[2] = test system: neutrophils in BALF, mainstream of cigarette smoke induced pulmonary injury model; test: Inhibitory effect on increase of neutrophils in mainstream of cigarette smoke induced pulmonary injury model; type: in vivo; details: male CD rats, 0.3 mg/body orally 10 to 12 hours before exposure to mainstream of cigarette smoke, BAL after the exposure for 6 hours
Method: Compound (I) was suspended to the concentration of 0.6 mg/mL in a physiological saline containing 25% Alevaire (registered trademark, Azwell, Osaka), which is an inhalant for respiratory organs, (administration solvent). The suspension was used for the test. The suspension is referred to as a “suspension for the administration of Compound (I)”.
First, 0.5 mL of the administration solvent or the suspension for the administration of Compound (I) per kilogram of body weight was administered orally to male CD rats aged 6 to 7 weeks (Charles River Japan, Kanagawa). After 10 to 12 hours, the rats were systemically exposed to mainstream of cigarette smoke (Hi-Lite, Japan Tobacco Inc., Tokyo) using a smoking exposure instrument (M•I•P•S, Osaka). The exposure to the mainstream of cigarette smoke for 5 minutes and then exposure to air for 10 minutes were successively performed by repeating them eight times.
A group subjected to the administration of the administration solvent and exposure to air instead of mainstream of cigarette smoke is referred to as a “solvent administration group”. […]
After the exposure for 6 hours, BALs were performed with Hanks' solution [Hanks' Balanced Salt Solution (Invitrogen Corporation, CA, USA)] […] All of the BALFs were recovered and subjected to treatment as in Test example 1, and then the numbers of neutrophils were measured. […]

With `COc1ccc(C(=O)Cc2c(Cl)cncc2Cl)c2c1OC1(CCCC1)O2` [Compound (I), 7-[2-(3,5-dichloro-4-pyridyl)-1-oxoethyl]-4-methoxy-spiro[1,3-benzodioxol-2,1′-cyclopentane]] the Number of neutrophils ([1]; mean ± standard error) was 0.72 ± 0.22 ×10^5 cells/BALF, the “Inhibition ratio of increase in number of neutrophils” value ([1]; equation 3) was 47% and the “Inhibition ratio of increase in number of neutrophil” value [2] was 81%. For the same molecule, the Number of neutrophils ([2]; mean ± standard error) was 0.34 ± 0.13 ×10^5 cells/BALF.
